Test results published in patent US4534980A, “Antiinflammatory and antipyretic cream” (Hokuriku Pharmaceutical Co., Ltd., priority 1984, dated 1985).

Tests used:
[1] = tested on: carrageenin induced paw edema; settings: 5 mg/kg, Folia Pharmacologica Japonica vol. 70, page 543 (1974); cited from earlier work
[2] = tested on: carrageenin induced paw edema; assay: Antiinflammatory effect on carrageenin induced paw edema (Experiments 3, 8); type: in vivo, Wistar male rats; settings: inhibition rate in oral administration = 1.00
Procedure: The antiinflammatory effect of the test compositions in Experiment 1 was determined by an effect on carrageenin induced paw edema. The experiment was performed using 8 Wistar male rats weighing approximately 170 g per one group. After previously measuring the volume of left hind paw, 50 mg each of the test compositions (stored at room temperature for one month after the preparation) was applied twice, left hind paw of the rat, 2 hours and 1 hour before injection of an inflammatory agent. As the inflammatory agent, 0.1 ml of a 1% carrageenin solution was subcutaneously injected at the left hind paw. The volume of the left hind paw was measured 3 hours after and a swelling was determined based on the volume before injecting the inflammatory agent. A group in which no test composition was applied was made a control group and the inhibition rate was calculated based thereon as follows. [formula]
The antiinfammatory effect was examined with the test compositions of Experiment 7, in a manner similar to Experiment 3.

CC(C(=O)O)c1cccc(C(=O)c2ccccc2)c1 (centres unmarked) [Ketoprofen]
Inhibition Rate, Oral Administration (Table 3) [1]: 45.9% | Potency Ratio (Table 3) [2]: 1.00
